In patent US20260207824A1, “GALLIUM-LOADED HYDROGELS FOR BONE TREATMENT” (NORTHEAST OHIO MEDICAL UNIVERSITY, priority 2022, published 2026):
Each block holds one molecule with its values, some of them ahead of it.

What was measured:
[1] = In-vivo retention by IVIS imaging with ICG marker; design: species or system BALB/c mice
Protocol: In-vivo retention studies were carried out in healthy BALB/c mice using indocyanine green (ICG) as the marker with monitoring via the in-vivo imaging system (IVIS) Lumina XRMS series III (PerkinElmer, USA). All animal studies were performed according to a protocol approved by the Institutional Animal Care and Use Committee of Northeast Ohio Medical University.
All treatments were administered by a single periosseous (intramuscular, bone adjacent) injection in the lower right hindlimb. The animals were observed via IVIS at a selected time point to obtain total radiant efficiency of the injection site with an excitation set at 780 nm and emission at 845 nm based on the earlier reported method. Okubo et al., International Journal of Pharmaceutics, 575: p. 118845(2020 ).

OCs from RAW 264.7 cells = test: Pit resorption assay on bovine cortical bone slices, OCs from RAW 264.7; type: cell-based, murine; conditions: vs positive control
Protocol: To assess the effects of various treatments on OC function, we assessed the possible anti-resorptive effect via pit resorption assay. Briefly, bovine cortical bone slices were cleaned and sterilized as per the manufacturer's instructions and placed in a 24-well plate. The study was carried out using OC derived from either RAW 264.7 differentiation or murine hematopoietic stem cells (mHSCs).
Using OCs from RAW 264.7 cells, the detached pre-OC cells were seeded on top of the sanitized bovine cortical bone slice using 1.5×10^5 cells/cm^2 supplemented with a complete growth medium on day 0. […] Subsequent treatment with complete media containing RANKL occurred every two days for seven days. After seven days, the wells were aspirated and processed for further analysis.
To assess the osteoclastic resorptive effect of the wells with or without treatment, the bone slices were fixed with 10% formaldehyde and initially TRAP-stained, as reported. The bone slices were thoroughly cleaned with cotton swab and strained with 0.5% toluidine blue stain and incubated for three minutes at room temperature. The slices were then washed with water five times and patted dry. The pits formed on the bone slices, depicting OC function, were evaluated.

RAW 264.7 cells [2] = test: Biocompatibility (MTT cell viability) of GaAcAc in pre-osteoclastic cells; type: cell-based, murine; conditions: GaAcAc 10-50 μg/mL, 37° C., vs untreated control
Protocol: (§1) RAW 264.7 (pre-osteoclast) and MC3T3 (pre-osteoblast) cells were cultured and maintained in DMEM & AMEM supplemented with 10% FBS and 1% PenStrep in a humidified incubator at 37° C. and 5% CO2 conditions. RAW and MC 3 T3 cells, upon 70-80% confluency, were gently detached using a cell scraper and/or 0.25% v/v trypsin/EDTA. The detached cell suspension was collected and centrifuged at 1500 RPM for 5 minutes and seeded accordingly to the requirement for each experiment.
(§2) After the stipulated time of incubation, cell viability was measured by MTT assay using untreated control cells as a reference.

cFos, NFAT2, TRAF6, TRAP = test: Western blotting of OC differentiation markers; type: cell-based, murine; conditions: vs positive control (RANKL)
Protocol: To investigate the effects on OC differentiation, Pre-OC (RAW 264.7) cells were seeded, treated, and differentiated with various treatments as described under OC differentiation. Afterward, cells were lysed with 100 μL of RIPA buffer containing protease inhibitor. The lysates were collected and centrifuged at 1500 RPM for 10 minutes and analyzed for their protein content via the BCA protein assay kit. Protein samples (20 μg) were separated via 10% SDS-page gel and transferred onto a polyvinylidene fluoride (PVDF) membrane. The membrane was blocked with a respective blocking buffer, either 5% BSA or non-fat dry milk, for an hour. After blocking, the membranes were washed with 1× TBST buffer and later probed with primary antibodies; NFAT2, TRAP, TRAF6 and cFos with GAPDH as a loading control, diluted with 2% respective blocking buffer overnight at 4° C., followed by a 1-hour incubation with secondary HRP conjugated anti-rabbit IgG secondary antibody. The blots were visualized using the Fluorchem system.

[3] = system: murine hematopoietic stem cells (mHSCs); test: OC differentiation of murine hematopoietic stem cells with M-CSF and RANKL; type: cell-based, C57BL/6 mice
Protocol: All mice were housed and maintained at Northeast Ohio Medical University according to the guidelines of the Institutional Animal Care and Use Committee. Bone marrow cells were flushed from the femora, and tibiae were extracted from euthanized C57BL/6 mice (male, 6-8 weeks) as described previously. Xing L. and B.F. Boyce, Methods Mol Biol, 1130: p. 307-313(2014). The flushed cells were incubated overnight to separate hematopoietic (in supernatant) and mesenchymal (adherent) stem cells. The supernatant was then collected and seeded at the required density based on the type of well plate used (96 well plate: 2×10^5 cells/well & 24 well plate: 1.5×10^6 cells per well-day 0) in culture media supplemented with 30 ng/ml of M-CSF. […] On day-6, fresh media supplemented with M-CSF & RANKL were added to the differentiating cells. On day-7, the plates were fixed and evaluated for TRAP activity and counted for the number of TRAP-stained multinucleated osteoclasts formed similarly as mentioned above.

RAW 264.7 cells [4] = test: OC differentiation of RAW 264.7 cells with RANKL (TRAP activity, OC count, TRAP staining); type: cell-based, murine; conditions: for TRAP activity: vs positive control (RANKL alone); for number of TRAP-stained OCs (OC count): vs positive control, p<0.0001
Protocol: Pre-osteoclast (RAW 264.7) cells were differentiated by treating the cells with culture media supplemented with or without different concentration of F127 hydrogel (HG) leachates and 30 ng/ml RANKL. The cells were then assessed for TRAP activity and stained. (A) TRAP activity; (B) OC count. Only cells which have 3 or more nuclei and were TRAP stained, i.e., pink color were counted. Each data point represents Mean±SD; n=4 wells. *** p<0.0001, *p<0.01 vs RANKL.
RAW 264.7 (Pre-OC) cells were seeded at a density of 1.5×10^5 cells/cm^2 (day 0) in a 24-well bottom dish of an insert plate and incubated overnight for adherence. Subsequently, (day 1), cells were treated with growth media supplemented with 30 ng/ml of RANKL (positive control) alone or RANKL (30 ng/ml) together with various treatments-GaAcAc solution, MH, or GaMH. […] After the initial treatment and RANKL supplementation, cells in all treatment groups (except untreated control) received RANKL supplementation on day 3 to induce OC formation. On day 4, mature OCs were fixed at 4% paraformaldehyde for 10 minutes at room temperature and evaluated for the extent of OC differentiation based on tartrate-resistant acid phosphatase (TRAP) activity and stained with TRAP staining solution. TRAP (pink colored) stained and multinucleated (≥3 nuclei) cells according to earlier reported methods. Abdelmagid et al., J Biol Chem, 290(33): p. 20128-46 (2015).

Cathepsin K (CTSK) = test: CTSK ELISA of cell media during bone resorption, RAW 264.7; type: cell-based, mouse; design: dose or concentration left out as unconfirmed
Protocol: Cathepsin K (CTSK) assay was conducted during bone resorption studies (as described above) as a useful tool to assess the effects of GaMH treatment on OC function. Supernatant from treated/untreated wells after the third treatment of differentiation factors was collected and spun down at 2000g for 10 minutes at 4° C. The supernatant was then assessed for its CTSK concentration using the mouse CTSK/Cathepsin K Sandwich ELISA kit as per manufacture protocol.

[5] = In-vivo toxicity of GaAcAc solution based on weight of animals; conditions: 100 μL of 100 μg/mL subcutaneously 1-3×/week for 4 weeks
Protocol: Groups included in the study are: control: No injections; 1×/week: 100 μL of 100 μg/mL Ga solution injected subcutaneously in the back once per week for 4 weeks; 2×/week: 100 μL of 100 μg/mL Ga solution injected subcutaneously in the back twice per week for 4 weeks; 3×/week: 100 μL of 100 μg/mL Ga solution injected subcutaneously in the back three times per week for 4 weeks.

MC3T3 cells = test: Biocompatibility (MTT cell viability) of GaAcAc in pre-osteoblastic cells; type: cell-based; conditions: GaAcAc 10-50 μg/mL, 37° C., vs untreated control
Protocol: as §1, §2

[6] = system: OC differentiation and function; conditions: earlier studies; cited from earlier work

fluorescent intensity at injection site ([1]; 8 hrs post-injection, single periosseous injection): diminished | fluorescent intensity at injection site ([1]; 24 hrs post injection): completely disappeared
Structure (SMILES): CC1(C)C(/C=C/C=C/C=C/C=C2\N(CCCCS(=O)(=O)O)c3ccc4ccccc4c3C2(C)C)=[N+](CCCCS(=O)(=O)[O-])c2ccc3ccccc3c21 [ICG, Indocyanine green]

Structure (SMILES): CC(=O)/C=C(/C)[O][Ga]([O]/C(C)=C\C(C)=O)[O]/C(C)=C\C(C)=O [GaAcAc, gallium acetylacetonate]
resorption pits on bone slices (OCs from RAW 264.7 cells; 10 μg/mL GaAcAc): slightly reduced | number of pits formed (OCs from RAW 264.7 cells; 50 μg/mL): significantly decrease the number of pits formed | viability of pre-OC cells (RAW 264.7 cells [2]): did not affect the viability | expression levels of OC differentiation markers (cFos, NFAT2, TRAF6, TRAP; 10 μg/mL GaAcAc): slight decrease in expression levels | expression levels of OC differentiation markers (cFos, NFAT2, TRAF6, TRAP; 50 μg/mL GaAcAc): downregulation of expression levels | GaAcAc concentrations with significant inhibition of OC differentiation and OC count ([3]; dose-dependent, p<0.0001): greater than 25 μg/mL | OC differentiation and OC counts ([3]; mHSCs): suppressed OC differentiation and OC counts | TRAP staining (representative images) (RAW 264.7 cells [4]; 10 μg/mL): decrease in TRAP-stained cells | TRAP activity (RAW 264.7 cells [4]; 10 μg/mL): remarkable decrease in TRAP activity | number of TRAP-stained OCs (OC count) (RAW 264.7 cells [4]; 10 μg/mL): significant reduction in the number of OCs | TRAP staining (representative images) (RAW 264.7 cells [4]; 50 μg/mL): complete absence of multinucleated and TRAP-stained cells | TRAP activity (RAW 264.7 cells [4]; 50 μg/mL): remarkable decrease in TRAP activity | number of TRAP-stained OCs (OC count) (RAW 264.7 cells [4]; 50 μg/mL): significant reduction in the number of OCs | reduction in level of CTSK (Cathepsin K (CTSK); 50 GaAcAc solution): 4 times reduction | reduction in CTSK concentration (Cathepsin K (CTSK); GaAcAc solution (10)): 1.4 times reduction | toxicity based on weight of animals [5]: did not show detectable toxicity | viability of pre-OB cells (MC3T3 cells): did not affect the viability

Structure (SMILES): O=[N+]([O-])[O-].O=[N+]([O-])[O-].O=[N+]([O-])[O-].[Ga+3] [GaN, gallium nitrate]
OC differentiation and function [6]: effectively inhibit OC differentiation and function without affecting OBs
